Results: patent US12102648B2, “Orally-bioavailable nucleoside analogs” (priority 2021, dated 2024)
Like-named read-outs stand apart in the source and are kept apart here.

Experiment: in vitro
Type: in vitro ADME
Conditions: human
Protocol: The bidirectional permeability of compounds across the Caco-2 cell monolayer was assessed. The Caco-2 model is a widely used in vitro model for small intestinal absorption and potential for efflux.
Cell culture. Caco-2 cells were grown in DMEM supplemented with 10% fetal bovine serum (FBS), 1% Penicillin-Streptomycin and 1% MEM NEAA. The cells were incubated at 37° C., 5% CO2/95% air and saturated humidity. After reaching 80-90% confluency, the cells were gently detached with trypsin. Cells at passage 39 were seeded on the 24-well BD insert system at the density of 8×10^4 cells/cm^2 and cultured for 19 days with medium changed every 2-3 days. Measure the transepithelial electrical resistance (TEER) value of each well. The wells can be used only when their TEER values are greater than 600 Ohms/cm^2.
Transport assay. After removing the cell culture medium from the 24-well insert plate, the cells were rinsed with warm transport buffer. Appropriate dosing and receiving solutions were applied to the donor and receiver chambers to initiate the transport assay in apical to basolateral (A to B) or basolateral to apical (B to A) directions ([…] for apical and basolateral wells, respectively). Duplicate wells in each direction were used for the test compound and control compound. The plate was incubated in CO2 incubator at 37° C., with 5% CO2/95% air and saturated humidity without shaking. The sample after 10-minute incubation was used as the T0 sample, and the sample after 90-minute incubation was used as the T90 sample. To and T90 samples were collected from the donor and receiver side of each well at the designed timepoint, mixed with the transport buffer and acetonitrile/MeOH (1:1, v/v) and the internal standard for LC/MS/MS analysis. All samples were vortexed and centrifuged at 4000 rpm at 4° C. for 15 minutes, diluted with pure water and stored at 4° C. before bioanalysis by LC/MS/MS.
Sample analysis. The concentrations of test compounds and control compounds in Caco-2 cells were quantitatively determined by LC/MS/MS method after protein precipitation.
Calculations. The apparent permeability (Papp, cm/s), efflux ratio (ER) and recovery parameters were calculated for Caco-2 drug transport assay using the following equations:
[formula] [formula] where VR is the solution volume in the receiver chamber (0.4 mL on the apical side, 1.2 mL on the basolateral side); Area is the surface area for the insert membrane, i.e., 0.3 cm^2 for the area of the monolayer; Time is incubation time, expressed in seconds, i.e., 5400 s (90 min) for the current experiment; Co is the initial concentration of test compound or peak area ratio of control compounds in the donor chamber (μM); VD is the volume in the donor chambers (0.4 mL on the apical side, 1.2 mL on the basolateral side); CD and CR are the final concentrations of test compounds or peak area ratio of control compounds in donor and receiver chambers, respectively.
Compounds with Papp<1.0 are classified as low permeability, Papp between 1-10 are classified as medium permeability, and Papp≥10 are classified as high permeability. An efflux ratio (ER)>2 indicates the compounds are potential substrates for intestinal cell efflux transporters.

[1] = Caco-2 monolayer, apical to basolateral, 90-minute incubation, read-out: Papp, A-B
[2] = Caco-2 monolayer, basolateral to apical, 90-minute incubation, read-out: Papp, B-A
[3] = Caco-2 monolayer, ER>2 indicates potential efflux transporter substrate, read-out: ER (efflux ratio)

For CC(C)CC(=O)OC[C@H]1O[C@@](C#N)(c2ccc3c(N)ncnn23)[C@H](O)[C@@H]1OC(=O)Cc1ccccc1 [Compound 20, ((2R,3S,4R,5R)-5-(4-aminopyrrolo[2,1-f][1,2,4]triazin-7-yl)-5-cyano-4-hydroxy-3-(2-phenylacetoxy)tetrahydrofuran-2-yl)methyl 3-methylbutanoate], the Papp A→B at 90 min [1] was 10 ×10⁻⁶ cm/s, the Papp B→A at 90 min [2] was 9.8 ×10⁻⁶ cm/s and the efflux ratio at 90 min [3] was 1.

In the case of N#C[C@@]1(c2ccc3c(N)ncnn23)O[C@H](COC(=O)CC2CCC3(CCCC3)CC2)[C@@H](O)[C@H]1O [Compound 279, ((2R,3S,4R,5R)-5-(4-aminopyrrolo[2,1-f][1,2,4]triazin-7-yl)-5-cyano-3,4-dihydroxytetrahydrofuran-2-yl)methyl 2-(spiro[4.5]decan-8-yl)acetate], the Papp A→B at 90 min (Caco-2) is reported as 1.4 ×10⁻⁶ cm/s, the Papp B→A at 90 min (Caco-2) is reported as 0.9 ×10⁻⁶ cm/s and the efflux ratio at 90 min (Caco-2) is reported as 0.64.

CCC(=O)OC[C@H]1O[C@@](C#N)(c2ccc3c(N)ncnn23)[C@H](O)[C@@H]1OCOC(=O)C(C)(C)C [Compound 72, {[(2R,3S,4R,5R)-5-{4-aminopyrrolo[2,1-f][1,2,4]triazin-7-yl}-5-cyano-4-hydroxy-2-[(propanoyloxy)methyl]oxolan-3-yl]oxy}methyl 2,2-dimethylpropanoate] gave a Papp A→B at 90 min (Caco-2) of 5.8 ×10⁻⁶ cm/s, a Papp B→A at 90 min (Caco-2) of 3.2 ×10⁻⁶ cm/s and an efflux ratio at 90 min (Caco-2) of 0.55.

In the case of CNc1nc(N)nc2c1ncn2[C@@H]1O[C@H](COC(C)=O)[C@@H](OC(=O)Cc2ccccc2)[C@@]1(C)F [Compound 210, (2R,3R,4R,5R)-2-(acetoxymethyl)-5-(2-amino-6-(methylamino)-9H-purin-9-yl)-4-fluoro-4-methyltetrahydrofuran-3-yl 2-phenylacetate], the Papp A→B at 90 min [1] is reported as 15 ×10⁻⁶ cm/s, the Papp B→A at 90 min [2] is reported as 5.8 ×10⁻⁶ cm/s and the efflux ratio at 90 min [3] is reported as 0.38.

For CC(C)C(=O)OC[C@H]1O[C@@](C#N)(c2ccc3c(N)ncnn23)[C@H](O)[C@@H]1OCOC(=O)C(C)(C)C [Compound 64, (((2R,3S,4R,5R)-5-(4-aminopyrrolo[2,1-f][1,2,4]triazin-7-yl)-5-cyano-4-hydroxy-2-((isobutyryloxy)methyl)tetrahydrofuran-3-yl)oxy)methyl pivalate], the Papp A→B at 90 min (Caco-2) was 5.9 ×10⁻⁶ cm/s, the Papp B→A at 90 min (Caco-2) was 7.1 ×10⁻⁶ cm/s and the efflux ratio at 90 min (Caco-2) was 1.2.

For CCC(=O)O[C@@H]1[C@@H](COC(=O)C(C)C)O[C@@H](n2cnc3c(NC)nc(N)nc32)[C@]1(C)F [Compound 235, ((2R,3R,4R,5R)-5-(2-amino-6-(methylamino)-9H-purin-9-yl)-4-fluoro-4-methyl-3-(propionyloxy)tetrahydrofuran-2-yl)methyl isobutyrate], the Papp A→B at 90 min (Caco-2) was 11 ×10⁻⁶ cm/s, the Papp B→A at 90 min (Caco-2) was 4.5 ×10⁻⁶ cm/s and the efflux ratio at 90 min (Caco-2) was 0.4.

Work on CC(C)(C)C(=O)OCOC(=O)Nc1ncnn2c([C@]3(C#N)O[C@H](CO)[C@@H](OC(=O)CC4CCCCC4)[C@H]3O)ccc12 [Compound 370, (((7-((2R,3R,4S,5R)-2-cyano-4-(2-cyclohexylacetoxy)-3-hydroxy-5-(hydroxymethyl)tetrahydrofuran-2-yl)pyrrolo[2,1-f][1,2,4]triazin-4-yl)carbamoyl)oxy)methyl pivalate] yielded a Papp A→B at 90 min (Caco-2) of 0.3 ×10⁻⁶ cm/s, a Papp B→A at 90 min (Caco-2) of 0.23 ×10⁻⁶ cm/s and an efflux ratio at 90 min (Caco-2) of 0.77.

In the case of CC(C)CC(=O)O[C@H]1[C@@H](O)[C@](C#N)(c2ccc3c(N)ncnn23)O[C@@H]1COC(=O)CC1CCCCC1 [Compound 25, (2R,3S,4R,5R)-5-(4-aminopyrrolo[2,1-f][1,2,4]triazin-7-yl)-5-cyano-2-((2-cyclohexylacetoxy)methyl)-4-hydroxytetrahydrofuran-3-yl 3-methylbutanoate], the Papp A→B at 90 min (Caco-2) is reported as 56 ×10⁻⁶ cm/s, the Papp B→A at 90 min (Caco-2) is reported as 42 ×10⁻⁶ cm/s and the efflux ratio at 90 min (Caco-2) is reported as 0.7.

CC(C)CC(=O)OC[C@H]1O[C@@](C#N)(c2ccc3c(NC(=O)c4ccccc4)ncnn23)[C@H](O)[C@@H]1O [Compound 109] gave a Papp A→B at 90 min (Caco-2) of 1.4 ×10⁻⁶ cm/s, a Papp B→A at 90 min (Caco-2) of 1.3 ×10⁻⁶ cm/s and an efflux ratio at 90 min (Caco-2) of 0.9.

For CC(C)C(=O)Nc1ncnn2c([C@]3(C#N)O[C@H](COC(=O)Cc4ccccc4)[C@@H](OC(=O)[C@@H](N)C(C)(C)C)[C@H]3O)ccc12 [Compound 401, (2R,3S,4R,5R)-5-cyano-4-hydroxy-5-(4-isobutyramidopyrrolo[2,1-f][1,2,4]triazin-7-yl)-2-((2-phenylacetoxy)methyl)tetrahydrofuran-3-yl (S)-2-amino-3,3-dimethylbutanoate], the Papp A→B at 90 min [1] was 3.8 ×10⁻⁶ cm/s, the Papp B→A at 90 min [2] was 15.3 ×10⁻⁶ cm/s and the efflux ratio at 90 min [3] was 4.1.

CCC(=O)O[C@H]1[C@@H](O)[C@](C#N)(c2ccc3c(N)ncnn23)O[C@@H]1COC(=O)CC(C)C [Compound 23, ((2R,3S,4R,5R)-5-(4-aminopyrrolo[2,1-f][1,2,4]triazin-7-yl)-5-cyano-4-hydroxy-3-(propionyloxy)tetrahydrofuran-2-yl)methyl 3-methylbutanoate] showed a Papp A→B at 90 min (Caco-2) of 6.3 ×10⁻⁶ cm/s, a Papp B→A at 90 min (Caco-2) of 8.1 ×10⁻⁶ cm/s and an efflux ratio at 90 min (Caco-2) of 1.3.

In the case of CCCCC(=O)Nc1ncnn2c([C@]3(C#N)O[C@H](COC(=O)Cc4ccccc4)[C@@H](O)[C@H]3O)ccc12 [Compound 277, ((2R,3S,4R,5R)-5-cyano-3,4-dihydroxy-5-(4-pentanamidopyrrolo[2,1-f][1,2,4]triazin-7-yl)tetrahydrofuran-2-yl)methyl 2-phenylacetate], the Papp A→B at 90 min [1] is reported as 0.47 ×10⁻⁶ cm/s, the Papp B→A at 90 min [2] is reported as 5.4 ×10⁻⁶ cm/s and the efflux ratio at 90 min [3] is reported as 12.

Compound CC(=O)OCOC(=O)Nc1ncnn2c([C@]3(C#N)O[C@H](COC(=O)CC4(N)CCCCC4)[C@@H](O)[C@H]3O)ccc12 [Compound 363, ((2R,3S,4R,5R)-5-(4-(((acetoxymethoxy)carbonyl)amino)pyrrolo[2,1-f][1,2,4]triazin-7-yl)-5-cyano-3,4-dihydroxytetrahydrofuran-2-yl)methyl 2-(1-aminocyclohexyl)acetate] has a Papp A→B at 90 min (Caco-2) of 0.07 ×10⁻⁶ cm/s, a Papp B→A at 90 min (Caco-2) of 0.02 ×10⁻⁶ cm/s and an efflux ratio at 90 min (Caco-2) of 0.33.

With N#C[C@@]1(c2ccc3c(N)ncnn23)O[C@H](COC(=O)CC2CCCCC2)[C@@H](O)[C@H]1O [Compound 10, ((2R,3S,4R,5R)-5-(4-aminopyrrolo[2,1-f][1,2,4]triazin-7-yl)-5-cyano-3,4-dihydroxytetrahydrofuran-2-yl)methyl 2-cyclohexylacetate] the Papp A→B at 90 min (Caco-2) was 3 ×10⁻⁶ cm/s, the Papp B→A at 90 min (Caco-2) was 4.7 ×10⁻⁶ cm/s and the efflux ratio at 90 min (Caco-2) was 1.6.

CCCC(=O)Nc1ncnn2c([C@]3(C#N)O[C@H](COC(=O)Cc4ccccc4)[C@@H](OC(=O)[C@@H](N)C(C)C)[C@H]3O)ccc12 [Compound 346, (2R,3S,4R,5R)-5-(4-butyramidopyrrolo[2,1-f][1,2,4]triazin-7-yl)-5-cyano-4-hydroxy-2-((2-phenylacetoxy)methyl)tetrahydrofuran-3-yl L-valinate] showed a Papp A→B at 90 min [1] of 1.6 ×10⁻⁶ cm/s, a Papp B→A at 90 min [2] of 9 ×10⁻⁶ cm/s and an efflux ratio at 90 min [3] of 5.7.

Compound CCCCC(=O)Nc1ncnn2c([C@]3(C#N)O[C@H](CO)[C@@H](OC(=O)Cc4ccccc4)[C@H]3O)ccc12 [Compound 340, (2R,3S,4R,5R)-5-cyano-4-hydroxy-2-(hydroxymethyl)-5-(4-pentanamidopyrrolo[2,1-f][1,2,4]triazin-7-yl)tetrahydrofuran-3-yl 2-phenylacetate] has a Papp A→B at 90 min [1] of 0.64 ×10⁻⁶ cm/s, a Papp B→A at 90 min [2] of 0.23 ×10⁻⁶ cm/s and an efflux ratio at 90 min [3] of 0.35.

CNc1nc(NC(=O)CC2CCCCC2)nc2c1ncn2[C@@H]1O[C@H](COC(=O)CC2CCCCC2)[C@@H](O)[C@@]1(C)F [Compound 292, ((2R,3R,4R,5R)-5-(2-(2-cyclohexylacetamido)-6-(methylamino)-9H-purin-9-yl)-4-fluoro-3-hydroxy-4-methyltetrahydrofuran-2-yl)methyl 2-cyclohexylacetate] showed a Papp A→B at 90 min (Caco-2) of 2 ×10⁻⁶ cm/s, a Papp B→A at 90 min (Caco-2) of 1 ×10⁻⁶ cm/s and an efflux ratio at 90 min (Caco-2) of 0.5.

CC(C)[C@H](N)C(=O)O[C@H]1[C@@H](O)[C@](C#N)(c2ccc3c(NC(=O)c4ccccc4)ncnn23)O[C@@H]1CO [Compound 128, (2R,3S,4R,5R)-5-(4-benzamidopyrrolo[2,1-f][1,2,4]triazin-7-yl)-5-cyano-4-hydroxy-2-(hydroxymethyl)tetrahydrofuran-3-yl L-valinate] gave a Papp A→B at 90 min (Caco-2) of 0.3 ×10⁻⁶ cm/s, a Papp B→A at 90 min (Caco-2) of 6.4 ×10⁻⁶ cm/s and an efflux ratio at 90 min (Caco-2) of 22.
